The values below come from US20160109450A1, “METHOD FOR MONITORING METASTASIS OF CANCER CELLS USING CELLS CULTURED IN THREE DIMENSIONAL COLLAGEN ENVIRONMENT” (Medicinal Bioconvergence Research Center, priority 2013, published 2016).

Structures are written as SMILES.

Data set [1] has as its system MDA-MB-231 cell line. Briefly: ChIP (chromatin immunoprecipitation) on snail1 and cortactin promoters. Format: cell-based, human. To be noted: ChIP with anti-pS63 c-Jun antibody. The method, then:
The cells were then treated with 1.5 M glycine, followed by washing with cold PBS containing protease inhibitor. The fixed cells were loaded in SDS-lysis buffer supplemented with protease/kinase inhibitor, followed by sonication for lysis. The lysed sample proceeded to […] at 13000 rpm for 3 minutes, and the supernatant was transferred into a microcentrifuge tube, followed by sonication again for chromatin fragmentation. Supernatant was obtained by centrifugation, some of which was transferred into input and some of which was reacted with the antibodies of phospho-Ser^63-c-Jun, snail1, and smad 2/3/4 (cell signaling technology, USA) at 4° C. for at least 18 hours. Upon completion of the reaction, the tube was taken out from 4° C., to which sepharose beads coated with protein A and G (1:1), followed by reaction at 4° C. for 4 hours. The tube was then washed with RIPA/150 mM NaCl solution and washed again with RIPA/350 mM NaCl solution. The washed sample was washed again with LiCl washing buffer, which was washed with TE (Tris/EDTA) solution three times. TE solution was added thereto, followed by reaction at 65° C. for 15 hours. On the 3rd day of the reaction, RNase A was added to each input and sample, followed by reaction at 37° C. Proteinase K was added thereto, followed by reaction at 55° C. for 1 hour. […]

In data set [2] the test system is MDA-MB-231 cell line. To be noted: ERK inhibitor treated cells.

With `Oc1c2ccccc2c2c3c(cccc13)N=N2` [SP600125], the “binding of c-Jun to snail1 promoter region” value in data set [1] is recorded as “did not bind”.

With `N#CC(=C(/N)Sc1ccccc1N)/C(C#N)=C(/N)Sc1ccccc1N` [ERK inhibitor], the cell growth entry in data set [2] is listed as “did not grow normally but instead showed dying proneness”.
